Literature values as cited in patent publication US12558321B2, “Pharmaceutical formulation” (CIPLA LIMITED, priority 2018, dated 2026).

solubility at neutral conditions (neutral conditions): poor solubility
solubility in water (water): slightly soluble in water
SMILES: COC(=O)c1ccc2c(c1)NC(=O)/C2=C(\Nc1ccc(N(C)C(=O)CN2CCN(C)CC2)cc1)c1ccccc1 [Nintedanib]
